Reference: US20260000596A1, “SEMI-SYNTHETIC RHAMNOLIPIDS” (The Procter & Gamble Company, priority 2024, published 2026)
Values after ≈ are worked out from the molar mass of the structure shown. Like-named read-outs stand apart in the source and are kept apart here.

Tests used:
Type in all cases: cell-based
[1] = test system: Escherichia coli ATCC 8739; experiment: Minimal Kill Concentration Assay (MKCA), E. coli; conditions: for MBC: Escherichia coli, ATCC8739, 20 min, read-out: E. coli MKC (ppm)
Description: (§1) The MKC assay is a 96 well plate method to determine the minimum concentration of a test material or composition needed to kill Gram-negative and Gram-positive bacteria (Escherichia coli ATCC 8739 and Staphylococcus aureus ATCC 6538, respectively). The bacterial suspensions are prepared from 10× freezer stocks with 15% glycerol. The freezer stocks are centrifuged at 13,000×g (Eppendorf Centrifuge […] No. 541705483) for 1 minute. The supernatant is removed, and the cell pellet is resuspended in 1 mL saline (Sodium chloride solution 0.9%, Cytiva REF: Z1376), and then transferred to 9 mL saline. The target cfu/ml is 10^8, which is confirmed via serial diluting and plating on TSA plates (Tryptic Soy Agar-Sigma-Aldrich Cat #22091). Then 50 μL (25 μL if low on test materials) of bacteria is added to each well of a 96 well 0.5 mL V-Bottom plate (Greiner bio-one REF: 786201) to make a bacteria plate, one separate plate for each bacterium. The dilutions of the test compounds are prepared in a separate 96 well plate. The test compounds are tested at six dilutions in duplicates or with no replication diluted across the entire plate. The test compounds are prepared in Dimethyl Sulfoxide (Sigma Aldrich GR ACS Cat. No: MX1458-6) or sterile water at 2× the intended test concentration, and then serially diluted in the appropriate vehicle 1:2 across the plate using a multichannel. 50 μL (25 μL if low on test materials) from the test compound plate is added to each well in the bacteria plate all at once using an Integra VIAFLOW 96 channel pipette (Model: VIAFLO 96) and the Integra 300 μL Head (Part No. 6103). With addition of the 2× compounds bacteria plate, the compounds are diluted to a 1× test concentration. The addition of the test compounds to the bacteria wells starts the 20-minute contact time. The plates are mixed well using a Mix-Mate (Eppendorf SE). After 20 minutes, 1 μL from each well of the bacteria plate is transferred to premade Tryptic Soy Agar (TSA) plates (OmniTray Cell Culture Treated w/Lid Sterile, Cat. No: 165218) for spot plating using the Integra VIAFLOW 96 with the Integra 12.5 μL head (Part No. 6101). Then 4 μL from each well of the bacteria/compound plate is transferred to another 96 well plate containing 36 μL of neutralizer broth Modified Letheen Broth (BD Difco Letheen Broth, Modified REF 263010). The contact time is stopped at 20 minutes once the compound plate is neutralized. The plates are mixed well using a Mix-Mate and then 1 μL of the neutralizer+sample mix is transferred to a TSA OmniTray plate using the Integra VIAFLOW and Integra 12.5 μL head. The TSA spot plates are then incubated overnight for 20 hours at 37° C. in an Incubator. This process is done for both bacteria species. After overnight incubation, the plates are removed from the incubator and the results recorded by observing which dilutions had bacterial kill/growth. The last dilution that had kill for both replicates is recorded as the MKC. A positive control of Benzalkonium chloride (Sigma Aldrich Cat. No.: 12060-5G) and vehicle controls are always included in the test.

[2] = test system: Staphylococcus aureus ATCC 6538; experiment: Minimal Kill Concentration Assay (MKCA), S. aureus
Description: as §1

[3] = test system: Staphylococcus aureus ATCC #6538; experiment: Minimum Inhibitory Concentration (MIC) Assay with Minimum Biocidal Concentration (MBC); conditions: solvent DMSO; for MBC / MIC: Staphylococcus aureus, ATCC6538, 24 h; for MBC: read-out: S. aureus MBC (ppm); for MIC: read-out: S. aureus MIC (ppm)
Description: The Minimum Inhibitory Concentration (MIC) Assay is a 96-well high throughput method that determines the minimum concentration of an active required to inhibit the growth of microorganisms. Organism preparation: Compounds were evaluated against the following microorganisms: Staphylococcus aureus ATCC #6538 (American Type Culture Collection, Manassas, Virginia, USA). To prepare bacteria solutions, bacteria were streaked on Tryptic Soy Agar (TSA) and incubated at 30-35° C. for 18-24 hrs. Confluent growth was transferred to saline (0.85% NaCl) and turbidometrically adjusted to a target concentration of 10^7-10^8 CFU/ml. This inoculum solution was further diluted 1:1000 in Tryptic Soy Broth (pH 7) for assay use. Assay: Two-fold serial dilutions were prepared in Dimethylsulfoxide (DMSO, Thermo Scientific Pierce DMSO, Sequencing Grade) or sterile water for each test sample. In a sterile 96-well plate, each dilution was further diluted in broth inoculum such that each well contained 5% dilution and 95% broth inoculum. Bacteria plates were incubated on an orbital shaker (Heidolph Titramax 1000 Vibrating Platform Shaker, 200-300 rpm) for 24±2 hrs at 35° C. After incubation, the optical density (OD) of each well was measured in a spectrophotometer (Victor Nivo Multimode Plate Reader) at 600 nm. […] To determine the Minimum Biocidal Concentration (MBC), 2 ul from each well was pipetted onto neutralizing agar (Modified Letheen Agar with Tween) and incubated for 24 hrs at 30-35° C. The MBC was determined as the most dilute concentration with no visible growth.

[4] = Table 1.4b, solvent DMSO, 20-minute contact time
[5] = Table 4, derivatized rhamnolipids, solvent DMSO, 20-minute contact time

Row | Compound | MBC ([3]; Table 5) [µg/mL] | MIC ([3]; Table 5) [µg/mL] | E. coli MKC (ppm) [1, 5] [ppm] | S. aureus MKC (ppm) [2, 5] [ppm] | S. aureus MBC (ppm) ([3]; Table 5) | S. aureus MIC (ppm) ([3]; Table 5) | further results
1 | CCCCCC(CC(=O)O)OC1O[C@@H](C)[C@H](O)[C@@H](O)[C@H]1O (some centres unmarked) [Rha1C14] |  |  |  |  |  |  | E. coli MKC (ppm) [1, 4]: 781 ppm; S. aureus MKC (ppm) [2, 4]: 781 ppm; S. aureus MIC (ppm) ([3]; Table 1.5, >=50% inhibition, 24 hrs at 35° C.): 625 ppm; S. aureus MBC (ppm) ([3]; Table 1.5, no visible growth): >10000 ppm
2 | CCCCCCCC(CC(=O)O)O[C@@H]1O[C@@H](C)[C@H](O)[C@@H](O)[C@H]1O[C@@H]1O[C@H](C)C(O)[C@@H](O)[C@H]1O (stereo partly drawn) [calcium 3-(((2R,3R,4R,5R,6S)-4,5-dihydroxy-6-methyl-3-(((2S,3R,4R,6R)-3,4,5-trihydroxy-6-methyltetrahydro-2H-pyran-2-yl)oxy)tetrahydro-2H-pyran-2-yl)oxy)decanoate] | > 4000 | > 4000 |  |  |  |  | MBC [1]: > 9390 µg/mL; MBC ([2]; Staphylococcus aureus, ATCC6538, 20 min, read-out: S. aureus MKC (ppm)): > 9390 µg/mL
3 | CCCCCCCC(CC(=O)OC)O[C@@H]1O[C@@H](C)[C@H](O)[C@@H](O)[C@H]1O (stereo partly drawn) [methyl 3-(((2R,3R,4R,5R,6S)-3,4,5-trihydroxy-6-methyltetrahydro-2H-pyran-2-yl)oxy)decanoate] | 1400 (≈ 4 mM) | 1400 (≈ 4 mM) |  |  |  |  | MBC [1, 5]: > 3490 µg/mL; minimal kill concentration (20-minute contact) ([2]; Staphylococcus aureus, ATCC6538, 20 min, Table 4, derivatized rhamnolipids, solvent DMSO, 20-minute contact time, read-out: S. aureus MKC (ppm)): > 3490 µg/mL
4 | Methyl 3-(((2R,3R,4R,5R,6S)-4,5-dihydroxy-6-methyl-3-(((2R,3S,4S,5S,6S)-3,4,5-trihydroxy-6-methyltetrahydro-2H-pyran-2-yl)oxy)tetrahydro-2H-pyran-2-yl)oxy)decanoate |  |  | >4945.8 | >4945.8 | 1978.3 | 1978.3 | 
5 | N-benzyl-3-(((2R,3R,4R,5R,6S)-4,5-dihydroxy-6-methyl-3-(((2R,3S,4S,5S,6S)-3,4,5-trihydroxy-6-methyltetrahydro-2H-pyran-2-yl)oxy)tetrahydro-2H-pyran-2-yl)oxy)decanamide |  |  | >5696.9 | >5696.9 | >2278.3 | 2278.8 | 
